Results as given in patent US12338243B2, “P2X7 modulators” (JANSSEN PHARMACEUTICA NV, priority 2014, dated 2025).
Like-named read-outs stand apart in the source and are kept apart here.

What was measured:
P2X7 [1] = biological target: T1, P2X7 (Homo sapiens, UniProt Q99572); experiment: Ca2+ flux (FLIPR) in 1321N1 cells expressing recombinant human P2X7 channel; format: cell-based; parameters: expressed in transfected cells; host or cells: 1321N1 cells; conditions: 250 μM BzATP
T1 sequence (Q99572 1-595): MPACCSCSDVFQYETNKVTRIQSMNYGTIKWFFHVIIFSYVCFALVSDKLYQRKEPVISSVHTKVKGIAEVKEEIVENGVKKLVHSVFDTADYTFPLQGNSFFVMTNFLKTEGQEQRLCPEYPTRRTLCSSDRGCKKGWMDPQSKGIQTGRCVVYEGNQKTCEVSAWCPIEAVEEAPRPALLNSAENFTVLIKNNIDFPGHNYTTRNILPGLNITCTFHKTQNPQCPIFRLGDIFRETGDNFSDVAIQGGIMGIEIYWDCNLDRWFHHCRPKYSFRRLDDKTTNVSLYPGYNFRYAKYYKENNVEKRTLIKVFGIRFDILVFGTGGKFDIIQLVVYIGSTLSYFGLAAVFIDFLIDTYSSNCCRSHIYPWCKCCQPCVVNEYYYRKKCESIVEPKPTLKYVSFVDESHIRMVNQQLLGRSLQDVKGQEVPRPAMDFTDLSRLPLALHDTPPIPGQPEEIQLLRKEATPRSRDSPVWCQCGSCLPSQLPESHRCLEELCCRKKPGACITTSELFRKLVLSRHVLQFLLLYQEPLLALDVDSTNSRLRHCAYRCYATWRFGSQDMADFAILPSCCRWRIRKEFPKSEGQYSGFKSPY
Outline: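 1321N1 cells expressing recombinant human P2X7, loaded 60 min with Calcium-4 dye in HEPES buffer pH 7.40 (1 mM CaCl2, 1 mM MgCl2), preincubated 30 min with compounds. Fluorescence change recorded 180 seconds after agonist addition.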

P2X7 [2] = biological target: T1, P2X7; experiment: Radioligand binding, human P2X7-1321N1 cell membranes, tritiated A-804598
Excerpt: (§1) P2X7 Antagonism in Recombinant Human P2X7 Cells or Recombinant Rat P2X7 Cells: (a) Ca^2+ Flux and (b) Radioligand Binding

rat P2X7 [3] = biological target: T2, rat P2X7 (Rattus norvegicus, UniProt Q64663); experiment: Radioligand binding, rat P2X7-1321N1 cell membranes, tritiated A-804598
T2 sequence (Q64663 1-595): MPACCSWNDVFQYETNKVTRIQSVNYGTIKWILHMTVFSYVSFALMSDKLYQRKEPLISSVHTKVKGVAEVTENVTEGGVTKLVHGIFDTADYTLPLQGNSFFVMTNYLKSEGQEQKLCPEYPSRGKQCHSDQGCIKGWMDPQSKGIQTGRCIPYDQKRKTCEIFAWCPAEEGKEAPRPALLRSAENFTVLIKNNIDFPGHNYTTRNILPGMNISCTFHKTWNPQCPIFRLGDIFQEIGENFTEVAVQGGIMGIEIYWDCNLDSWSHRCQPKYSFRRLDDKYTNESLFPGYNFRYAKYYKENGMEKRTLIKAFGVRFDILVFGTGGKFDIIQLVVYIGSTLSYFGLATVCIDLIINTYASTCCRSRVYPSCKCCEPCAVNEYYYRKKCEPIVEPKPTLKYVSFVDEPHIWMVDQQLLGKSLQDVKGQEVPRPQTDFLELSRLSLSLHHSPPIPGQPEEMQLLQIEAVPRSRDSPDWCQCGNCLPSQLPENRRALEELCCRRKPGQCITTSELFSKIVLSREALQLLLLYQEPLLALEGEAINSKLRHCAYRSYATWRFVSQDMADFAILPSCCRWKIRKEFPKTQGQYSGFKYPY
Excerpt: as §1

rat P2X7 [4] = biological target: T2, rat P2X7; experiment: Ca2+ flux (FLIPR) in 1321N1 cells expressing recombinant rat P2X7 channel; conditions: 250 μM BzATP
Method: as §1
(a) Ca^2+ flux: 1321N1 cells expressing the recombinant human or rat P2X7 channel was cultured in HyQ DME/(HyClone/Dulbecco's Modified Eagle Medium) high glucose supplemented with 10% Fetal Bovine Serum (FBS) and appropriate selection marker. Cells were seeded at a density of 25000 cells/well (96-well clear bottom black walled plates) in 100 μl volume/well. On the day of the experiment, cell plates were washed with assay buffer, containing (in mM): 130 NaCl, 2 KCl, 1 CaCl2), 1 MgCl2, 10 HEPES, 5 glucose; pH 7.40 and 300 mOs. After the wash, cells were loaded with the Calcium-4 dye (Molecular Device) and incubated in the dark for 60 minutes. Test compounds were prepared at 250× the test concentration in neat DMSO. Intermediate 96-well compound plates were prepared by transferring 1.2 μL of the compound into 300 μL of assay buffer. A further 3× dilution occurred when transferring 50 μL/well of the compound plate to 100 μL/well in the cell plate. Cells were incubated with test compounds and dye for 30 minutes. […] The fluorescence change was measured 180 seconds after adding the agonist.

P2X7 [5] = biological target: T1, P2X7; experiment: P2X7 antagonism in human PBMCs (IL-1β release, ELISA); format: cell-based; parameters: PBMCs were isolated from blood using a Ficoll density gradient technique; endogenous in cells; host or cells: human PBMCs / human whole blood from donors; conditions: LPS 30 ng/ml + 0.5 mM Bz-ATP, compound 10 μM
Method: P2X7 Antagonism in Human Peripheral Blood Mononuclear Cells (PBMCs) and Human Whole Blood.
Human blood was collected using a blood donor program. PBMCs were isolated from blood using a Ficoll density gradient technique. Briefly, blood was laid on Ficoll solution and centrifuged at RT for 20 minutes at 2000 rpm. The buffy layer (between red blood cells and plasma) was carefully collected by aspiration, washed with PBS and centrifuged again at 1500 rpm for 15 minutes. The resulting cell pellet was washed and plated on 96 well-plates for experiments. For the Human Whole Blood experiments, 150 μl of human blood was platted on 96 well-plates. Lipopolysaccharide (LPS) (30 ng/ml) was added to each well and incubated for 1 hour. Test compounds were then added and incubated for 30 minutes. The P2X7 agonist, 2′(3′)-O-(4-benzoylbenzoyl) adenosine 5′ triphosphate (Bz-ATP) was then added at a final concentration of 0.5 mM (PBMC) or 1 mM (blood). Cells were incubated for an additional 1.5 hours. At that point, supernatant was collected and stored for IL-1β assay using manufacturer's protocol for enzyme-linked immunosorbent assay (ELISA). Data was expressed as percent control, where control is defined as the difference in IL-1β release in LPS+Bz-ATP samples and LPS only samples. Data was plotted as response (% control) versus concentration to generate IC50 values. […] Data are analyzed and graphed on Graphpad Prism 5. For analysis, each concentration point is averaged from triplicate values and the averaged values are plotted on Graphpad Prism. The IC50 for each compound is then uploaded into 3DX.

| SMILES | IC50 (P2X7 [1]) | Ki (P2X7 [2]) | Ki (rat P2X7 [3]) | IC50 (rat P2X7 [4]; read-out: FLIPR (rat) IC50) | PBMC 10 μM (% control) (P2X7 [5]) | IC50 (rat P2X7 [4]; FLIPR (rat) IC50 (μM)) |
| --- | --- | --- | --- | --- | --- | --- |
| CCc1nnc2n1CCN(C(=O)c1cccc(C(F)(F)F)c1Cl)[C@@H]2c1ccccc1 [Example 86, (R)-(2-chloro-3-(trifluoromethyl)phenyl)(3-ethyl-8-phenyl-5,6-dihydro-[1,2,4]triazolo[4,3-a]pyrazin-7(8H)-yl)methanone] | 2.3 nM | 12.6 nM | 10 nM | 0.0585 µM |  |  |
| O=C(c1ccnc(C(F)(F)F)c1Cl)N1CCn2c(nnc2C(F)(F)F)C1c1ccccc1 (single isomer, unassigned) [Example 100, (S*)-(3-chloro-2-(trifluoromethyl)pyridin-4-yl)(8-phenyl-3-(trifluoromethyl)-5,6-dihydro-[1,2,4]triazolo[4,3-a]pyrazin-7(8H)-yl)methanone] |  |  |  |  | 102.0 % control |  |
| CC(C)(C)c1nnc2n1CCN(C(=O)c1cccc(C(F)(F)F)c1Cl)[C@@H]2c1ccccc1 [Example 81, (R)-(3-(tert-butyl)-8-phenyl-5,6-dihydro-[1,2,4]triazolo[4,3-a]pyrazin-7(8H)-yl)(2-chloro-3-(trifluoromethyl)phenyl)methanone] | 11.3 nM | 50.1 nM | 8.9 nM | 0.027 µM |  |  |
| O=C(c1cccc(C(F)(F)F)c1Cl)N1CCn2c(nnc2C(F)(F)F)[C@H]1c1ccccc1 [Example 97, (R)-(2-chloro-3-(trifluoromethyl)phenyl)(8-phenyl-3-(trifluoromethyl)-5,6-dihydro-[1,2,4]triazolo[4,3-a]pyrazin-7(8H)-yl)methanone] | 7.8 nM | 12.6 nM | 4.7 nM |  |  | 0.0428 µM |
| O=C(c1cccc(Cl)c1Cl)N1CCn2c(nnc2C(F)(F)F)[C@H]1c1ccccc1 [Example 102, (R)-(2,3-dichlorophenyl)(8-phenyl-3-(trifluoromethyl)-5,6-dihydro-[1,2,4]triazolo[4,3-a]pyrazin-7(8H)-yl)methanone] | 10.5 nM | 10 nM | 29.5 nM |  |  | 0.488 µM |
| C[C@H]1Cn2c(nnc2-c2ccc(F)cn2)CN1C(=O)c1cccc(C(F)(F)F)c1Cl [Example 70, (S)-(2-chloro-3-(trifluoromethyl)phenyl)(3-(5-fluoropyridin-2-yl)-6-methyl-5,6-dihydro-[1,2,4]triazolo[4,3-a]pyrazin-7(8H)-yl)methanone] | 6.9 nM | 12.6 nM | 4 nM |  |  | 0.0077 µM |
| O=C(c1cccc(C(F)(F)F)c1Cl)N1CCn2c(C(F)F)nnc2[C@H]1c1ccccc1 [Example 108, (R)-(2-chloro-3-(trifluoromethyl)phenyl)(3-(difluoromethyl)-8-phenyl-5,6-dihydro-[1,2,4]triazolo[4,3-a]pyrazin-7(8H)-yl)methanone] | 8.6 nM | 5.8 nM | 10 nM |  |  | 0.0816 µM |
| O=C(c1cccc(C(F)(F)F)c1Cl)N1CCn2c(C3CC3)nnc2[C@@H]1c1ccccc1 [Example 76, (S)-(2-chloro-3-(trifluoromethyl)phenyl)(3-cyclopropyl-8-phenyl-5,6-dihydro-[1,2,4]triazolo[4,3-a]pyrazin-7(8H)-yl)methanone] | 6.7 nM | 10 nM | 5 nM |  |  | 0.0168 µM |
| Cc1nnc2n1CCN(C(=O)c1cccc(C(F)(F)F)c1Cl)[C@H]2c1ccccc1 [Example 66, (S)-(2-chloro-3-(trifluoromethyl)phenyl)(3-methyl-8-phenyl-5,6-dihydro-[1,2,4]triazolo[4,3-a]pyrazin-7(8H)-yl)methanone] | 2.7 nM | 7.9 nM | 2 nM |  |  | 0.0269 µM |
| O=C(c1ccc(F)c(C(F)(F)F)c1Cl)N1CCn2c(nnc2C(F)(F)F)C1c1ccccc1 (single isomer, unassigned) [Example 96, (S*)-(2-chloro-4-fluoro-3-(trifluoromethyl)phenyl)(8-phenyl-3-(trifluoromethyl)-5,6-dihydro-[1,2,4]triazolo[4,3-a]pyrazin-7(8H)-yl)methanone] | 4890 nM |  |  |  | 43.6 % control | > 10 µM |
| O=C(c1cccc(Cl)c1Cl)N1CCn2c(C(F)F)nnc2[C@H]1c1ccccc1 [Example 110, (R)-(2,3-dichlorophenyl)(3-(difluoromethyl)-8-phenyl-5,6-dihydro-[1,2,4]triazolo[4,3-a]pyrazin-7(8H)-yl)methanone] | 3.4 nM | 7.9 nM | 16.6 nM |  |  | 0.441 µM |
| O=C(c1cccc(C(F)(F)F)c1Cl)N1CCn2c(nnc2C(F)(F)F)C1c1ccccc1 (racemic) [Example 75, (±)-(2-chloro-3-(trifluoromethyl)phenyl)(8-phenyl-3-(trifluoromethyl)-5,6-dihydro-[1,2,4]triazolo[4,3-a]pyrazin-7(8H)-yl)methanone] | 52.9 nM | 28.8 nM | 25.1 nM |  |  | 0.542 µM |
| COc1ccc(-c2nnc3n2C[C@H](C)N(C(=O)c2cccc(Cl)c2Cl)C3)nc1 [Example 72, (S)-(2,3-dichlorophenyl)(3-(5-methoxypyridin-2-yl)-6-methyl-5,6-dihydro-[1,2,4]triazolo[4,3-a]pyrazin-7(8H)-yl)methanone] | 8590 nM |  | 178 nM |  |  | > 10 µM |
| O=C(c1ccc(F)c(C(F)(F)F)c1Cl)N1CCn2c(nnc2C(F)(F)F)C1c1ccccc1 (single isomer, unassigned) [Example 95, (R*)-(2-chloro-4-fluoro-3-(trifluoromethyl)phenyl)(8-phenyl-3-(trifluoromethyl)-5,6-dihydro-[1,2,4]triazolo[4,3-a]pyrazin-7(8H)-yl)methanone] | 9.7 nM | 31.6 nM |  |  | 8.9 % control | 0.211 µM |
| CC(C)c1nnc2n1CCN(C(=O)c1cccc(C(F)(F)F)c1Cl)[C@@H]2c1ccccc1 [Example 88, (R)-(2-chloro-3-(trifluoromethyl)phenyl)(3-isopropyl-8-phenyl-5,6-dihydro-[1,2,4]triazolo[4,3-a]pyrazin-7(8H)-yl)methanone] | 10.2 nM | 20 nM | 25.1 nM |  |  | 0.166 µM |
| O=C(c1cccc(C(F)(F)F)c1Cl)N1CCn2c(C3CCC3)nnc2[C@H]1c1ccccc1 [Example 93, (R)-(2-chloro-3-(trifluoromethyl)phenyl)(3-cyclobutyl-8-phenyl-5,6-dihydro-[1,2,4]triazolo[4,3-a]pyrazin-7(8H)-yl)methanone] | 8.1 nM | 15.8 nM | 6.3 nM |  |  | 0.0178 µM |
